Experimental data reported in patent US8198456B2, “Dihydropyridine derivatives as useful as protein kinase inhibitors” (Bayer Intellectual Property GmbH, priority 2006, dated 2012).

Molecular target: T1, recombinant human c-MET kinase enzyme domain (Homo sapiens, UniProt P08581)
T1 construct: Recombinant c-Met kinase domain (amino acids 960-1390); His (N); made in house; host or cells: baculovirus expression system (insect cells; SF21 is named only for the alternative format)
Test: c-MET receptor tyrosine kinase Homogeneous Time Resolved Fluorescence assay (HTRF)
Assay type: biochemical
Conditions: Biological Example 1 and/or Biological Example 2
Summary of the method: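 His-tagged c-Met kinase domain (aa 960-1390, baculovirus) phosphorylated biotinylated poly-Glu-Tyr (37 nM) with 20 μM ATP in HEPES pH 7.4, Mg/Mn, DTT, 1% DMSO, 20 min at ambient temperature, EDTA-stopped. HTRF read (PT66-Eu/streptavidin-XL665, 665/620 nm ratio) after 4 h; IC50 from eight 1:3.16 dilutions.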

T1 sequence (P08581 960-1390): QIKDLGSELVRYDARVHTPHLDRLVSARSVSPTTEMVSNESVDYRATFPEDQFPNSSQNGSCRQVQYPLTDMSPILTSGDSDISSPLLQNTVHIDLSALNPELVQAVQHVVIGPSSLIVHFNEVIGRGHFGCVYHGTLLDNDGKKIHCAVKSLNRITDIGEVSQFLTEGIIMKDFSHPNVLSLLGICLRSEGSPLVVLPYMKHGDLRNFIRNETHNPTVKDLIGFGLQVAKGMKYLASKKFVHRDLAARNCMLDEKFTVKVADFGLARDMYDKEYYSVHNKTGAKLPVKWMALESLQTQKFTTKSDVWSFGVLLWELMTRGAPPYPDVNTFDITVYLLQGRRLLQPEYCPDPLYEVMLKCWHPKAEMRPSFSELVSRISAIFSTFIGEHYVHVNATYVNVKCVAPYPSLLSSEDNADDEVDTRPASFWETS

Structure (SMILES)	IC50 [nM]
CCNc1n[nH]c2ccc(C3C(C#N)=C(C)NC(C)=C3C#N)cc12 [compound 121, 4-[3-(ethylamino)-1H-indazol-5-yl]-1,4-dihydro-2,6-dimethyl-3,5-pyridinedicarbonitrile]	< 100
CC1=C(C#N)C(c2ccc3[nH]ncc3c2)C(C#N)=C(C)N1 [compound 80, 1,4-dihydro-4-(1H-indazol-5-yl)-2,6-dimethyl-3,5-pyridinedicarbonitrile]	< 100
CC1=C(C#N)C(c2ccc3[nH]nc(-c4ccc(CN(C)C)cc4)c3c2)C(C#N)=C(C)N1 [compound 138, 4-[3-[4-[(dimethylamino)methyl]phenyl]-1H-indazol-5-yl]-1,4-dihydro-2,6-dimethyl-3,5-pyridinedicarbonitrile]	< 100
CC(=O)Nc1cccc(C2C(C#N)=C(C)NC(C)=C2C#N)c1 [compound 27, N-[3-(3,5-dicyano-1,4-dihydro-2,6-dimethyl-4-pyridinyl)phenyl]-acetamide]	500 to 2500
CC1=C(C#N)C(c2ccc3[nH]nc(Cl)c3c2)C(C#N)=C(C)N1C [compound 298, 4-(3-chloro-1H-indazol-5-yl)-1,4-dihydro-1,2,6-trimethyl-3,5-pyridinedicarbonitrile]	< 100
COC(=O)Nc1cccc(C2C(C#N)=C(C)NC(C)=C2C#N)c1 [compound 34, [3-(3,5-dicyano-1,4-dihydro-2,6-dimethyl-4-pyridinyl)phenyl]-carbamic acid, methyl ester]	500 to 2500
CCN(CC)CC(=O)Nc1n[nH]c2ccc(C3C(C#N)=C(C)NC(C)=C3C#N)cc12 [compound 141, N-[5-(3,5-dicyano-1,4-dihydro-2,6-dimethyl-4-pyridinyl)-1H-indazol-3-yl]-2-(diethylamino)-acetamide]	500 to 2500
CCOC(=O)CN1C(C)=C(C#N)C(c2ccc3[nH]ncc3c2)C(C#N)=C1C [compound 290, 3,5-dicyano-4-(1H-indazol-5-yl)-2,6-dimethyl-1(4H)-pyridineacetic acid ethyl ester]	< 100
CC1=C(C#N)C(c2ccc3[nH]nc(C(F)(F)F)c3c2)C(C#N)=C(C)N1 [compound 169, 1,4-dihydro-2,6-dimethyl-4-[3-(trifluoromethyl)-1H-indazol-5-yl]-3,5-pyridinedicarbonitrile]	500 to 2500
CCOCCCNC(=O)c1cccc(C2C(C#N)=C(C)NC(C)=C2C#N)c1 [compound 45, 3-(3,5-dicyano-1,4-dihydro-2,6-dimethyl-4-pyridinyl)-N-(3-ethoxypropyl)-benzamide]	500 to 2500
CC1=C(C#N)C(c2cccc(C(=O)Nc3cccnc3)n2)C(C#N)=C(C)N1 [compound 190, 3′,5′-dicyano-1′,4′-dihydro-2′,6′-dimethyl-N-3-pyridinyl-[2,4′-bipyridine]-6-carboxamide]	100 to 500
CC1=C(C#N)C(c2ccc3[nH]nc(-c4cnco4)c3c2)C(C#N)=C(C)N1 [compound 177, 1,4-dihydro-2,6-dimethyl-4-[3-(5-oxazolyl)-1H-indazol-5-yl]-3,5-pyridinedicarbonitrile]	< 100
COC(=O)c1cccc(C2C(C#N)=C(C)NC(c3ccc(O)cc3)=C2C#N)c1 (stereo not shown) [compound 234, 3-[3,5-dicyano-1,4-dihydro-2-(4-hydroxyphenyl)-6-methyl-4-pyridinyl]-benzoic acid, methyl ester]	100 to 500
CC1=C(C#N)C(c2ccc3[nH]nc(CN4CCN(c5ccncc5)CC4)c3c2)C(C#N)=C(C)N1 [compound 130, 1,4-dihydro-2,6-dimethyl-4-[3-[[4-(4-pyridinyl)-1-piperazinyl]methyl]-1H-indazol-5-yl]-3,5-pyridinedicarbonitrile]	500 to 2500
CC1=C(C#N)C(c2ccc3[nH]nc(CNc4cccnc4)c3c2)C(C#N)=C(C)N1 [compound 91, 1,4-dihydro-2,6-dimethyl-4-[3-[(3-pyridinylamino)methyl]-1H-indazol-5-yl]-3,5-pyridinedicarbonitrile]	< 100
CCOC(=O)C1=C(C#N)C(c2ccc3[nH]ncc3c2)C(C#N)=C(C)N1 (stereo not shown) [compound 268, 3,5-dicyano-1,4-dihydro-4-(1H-indazol-5-yl)-6-methyl-2-pyridinecarboxylic acid ethyl ester]	< 100
CC1=C(C#N)C(c2ccc3[nH]nc(Cl)c3c2)C(C#N)=C(C)N1 [compound 148, 4-(3-chloro-1H-indazol-5-yl)-1,4-dihydro-2,6-dimethyl-3,5-pyridinedicarbonitrile]	< 100
COc1cccc(-c2n[nH]c3ccc(C4C(C#N)=C(C)NC(C)=C4C#N)cc23)c1 [compound 84, 1,4-dihydro-4-[3-(3-methoxyphenyl)-1H-indazol-5-yl]-2,6-dimethyl-3,5-pyridinedicarbonitrile]	100 to 500
CC1=C(C#N)C(c2ccc3[nH]ncc3c2)C(C#N)=C(c2ccnc(NCCN3CCOCC3)c2)N1 (stereo not shown) [compound 278, 1,4-dihydro-4-(1H-indazol-5-yl)-6-methyl-2′-[[2-(4-morpholinyl)ethyl]amino]-[2,4′-bipyridine]-3,5-dicarbonitrile]	< 100
CNC(=O)c1cccc(C2C(C#N)=C(C)NC(C)=C2C#N)c1 [compound 22, 3-(3,5-dicyano-1,4-dihydro-2,6-dimethyl-4-pyridinyl)-N-methyl-benzamide]	100 to 500
CC1=C(C#N)C(c2ccc3[nH]nc(/C(C)=N/O)c3c2)C(C#N)=C(C)N1 [compound 160, 1,4-dihydro-4-[3-[(1E)-1-(hydroxyimino)ethyl]-1H-indazol-5-yl]-2,6-dimethyl-3,5-pyridinedicarbonitrile]	< 100
COC(=O)c1cccc(C2C(C#N)=C(C)NC(c3ccc([N+](=O)[O-])cc3)=C2C#N)c1 (stereo not shown) [compound 233, 3-[3,5-dicyano-1,4-dihydro-2-methyl-6-(4-nitrophenyl)-4-pyridinyl]-benzoic acid, methyl ester]	500 to 2500
CC1=C(C#N)C(c2cccc(NC(=O)c3cnc[nH]3)c2)C(C#N)=C(C)N1 [compound 66, N-[3-(3,5-dicyano-1,4-dihydro-2,6-dimethyl-4-pyridinyl)phenyl]-1H-imidazole-5-carboxamide]	100 to 500
CC1=C(C#N)C(c2ccc3[nH]nc(-c4nc5ccccc5[nH]4)c3c2)C(C#N)=C(C)N1 [compound 142, 4-[3-(1H-benzimidazol-2-yl)-1H-indazol-5-yl]-1,4-dihydro-2,6-dimethyl-3,5-pyridinedicarbonitrile]	< 100
CC1=C(C#N)C(c2ccc3[nH]ncc3c2)C(C#N)=C2CCCCN12 (stereo not shown) [compound 304, 6,7,8,9-tetrahydro-2-(1H-indazol-5-yl)-4-methyl-2H-quinolizine-1,3-dicarbonitrile]	< 100
CC1=C(C#N)C(c2ccc3[nH]nc(-c4ccccn4)c3c2)C(C#N)=C(C)N1 [compound 88, 1,4-dihydro-2,6-dimethyl-4-[3-(2-pyridinyl)-1H-indazol-5-yl]-3,5-pyridinedicarbonitrile]	< 100
CC1=C(C#N)C(c2ccc3[nH]nc(C#CCN(C)C)c3c2)C(C#N)=C(C)N1 [compound 139, 4-[3-[3-(dimethylamino)-1-propynyl]-1H-indazol-5-yl]-1,4-dihydro-2,6-dimethyl-3,5-pyridinedicarbonitrile]	< 100
CC1=C(C#N)C(c2ccc3[nH]ncc3c2)C(C#N)=C(CCN)N1 (stereo not shown) [compound 255, 2-(2-aminoethyl)-1,4-dihydro-4-(1H-indazol-5-yl)-6-methyl-3,5-pyridinedicarbonitrile]	< 100
CC1=C(C#N)C(c2ccc3[nH]ncc3c2)C(C#N)=C(c2ccncc2)N1 (stereo not shown) [compound 265, 1,4-dihydro-4-(1H-indazol-5-yl)-6-methyl-[2,4′-bipyridine]-3,5-dicarbonitrile]	< 100
CC1=C(C#N)C(c2cccc(C(=O)Nc3ccccn3)c2)C(C#N)=C(C)N1 [compound 43, 3-(3,5-dicyano-1,4-dihydro-2,6-dimethyl-4-pyridinyl)-N-2-pyridinyl-benzamide]	< 100

System: not given
Test: not given
Conditions: not given

Structure (SMILES)	melting point [°C]
CCNc1n[nH]c2ccc(C3C(C#N)=C(C)NC(C)=C3C#N)cc12 [compound 121, 4-[3-(ethylamino)-1H-indazol-5-yl]-1,4-dihydro-2,6-dimethyl-3,5-pyridinedicarbonitrile]	247.6
